The target of assay [1] is T1, Glucagon-like peptide 2 receptor (Homo sapiens, UniProt O95838).
T1 sequence (O95838 whole entry): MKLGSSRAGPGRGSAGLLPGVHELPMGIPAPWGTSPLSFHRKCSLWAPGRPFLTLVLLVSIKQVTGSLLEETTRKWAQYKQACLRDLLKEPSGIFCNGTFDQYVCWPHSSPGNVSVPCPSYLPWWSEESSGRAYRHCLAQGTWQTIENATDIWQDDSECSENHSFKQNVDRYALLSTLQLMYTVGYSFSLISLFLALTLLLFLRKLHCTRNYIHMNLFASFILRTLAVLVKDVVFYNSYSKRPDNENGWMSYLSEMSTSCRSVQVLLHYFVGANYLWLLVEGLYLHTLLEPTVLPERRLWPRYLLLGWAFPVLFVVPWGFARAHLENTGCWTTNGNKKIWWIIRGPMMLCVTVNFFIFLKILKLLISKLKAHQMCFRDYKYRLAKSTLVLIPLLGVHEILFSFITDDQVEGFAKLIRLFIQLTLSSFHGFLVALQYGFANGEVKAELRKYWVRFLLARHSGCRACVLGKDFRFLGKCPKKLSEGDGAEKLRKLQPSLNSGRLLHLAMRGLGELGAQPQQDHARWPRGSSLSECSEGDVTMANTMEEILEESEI
The experiment in a line: Agonist activity at human GLP2 receptor expressed in HEK293 cells assessed as increase in intracellular cAMP accumulation by AlphaScreen assay. Type of assay: functional, cell-based. For orientation: cAMP levels reflect the balance of adenylyl cyclase and phosphodiesterase activity.

For assay [2], the system named is Mus musculus. The experiment in a line: Antidiabetic activity in C57BL/6J mouse assessed as reduction in blood glucose level at 1000 nmol/kg, sc administered as single dose 1 hr prior to glucose challenge measured up to 120 mins post glucose challenge by OGTT. The class given is functional, organism-based.
A further assay concerns Rattus norvegicus. The assay can be described thus: In vivo agonist activity at GLP2R in Wistar rat assessed as increase in small intestinal wet weight administered sc once daily for 4 days measured on day 5. Type of assay: functional, organism-based.
For assay [3], the system named is Mus musculus. The assay can be described thus: In vivo agonist activity at GLP2R in diet-induced obese C57BL/6J mouse assessed as increase in small intestinal wet weight at 250 to 500 nmol/kg, sc bid for 14 days. Type of assay: functional, organism-based.
In assay [4] the test system is Mus musculus. The experiment in a line: In vivo agonist activity at GLP2R in diet-induced obese C57BL/6J mouse assessed as increase in large intestinal wet weight at 250 to 500 nmol/kg, sc bid for 14 days. Type of assay: functional, organism-based.
Assay [5] relates to Mus musculus. The experiment in a line: Antidiabetic activity in diet-induced obese C57BL/6J mouse assessed as decrease in fasting blood glucose level at 250 to 500 nmol/kg, sc bid for 14 days fasted overnight on day 11 to 12 and measured on day 14. The class given is functional, organism-based.
Assay [6] relates to Mus musculus. The assay can be described thus: Antidiabetic activity in diet-induced obese C57BL/6J mouse assessed as decrease in plasma insulin level at 250 to 500 nmol/kg, sc bid for 14 days fasted overnight on day 11 to 12 and measured on day 14. Type of assay: functional, organism-based.
Assay [7] relates to Mus musculus. The assay can be described thus: Antidiabetic activity in diet-induced obese C57BL/6J mouse assessed as decrease in insulin resistance by measuring lower HOMA-IR index at 250 to 500 nmol/kg, sc bid for 14 days fasted overnight on day 11 to 12 and measured on day 14. The class given is functional, organism-based.

In ChEMBL document CHEMBL4257228, “Glucagon-like-peptide-2 (glp-2) analogues” (2016) one finds EC50 and Activity data, which are given here for three molecules.

The source made the active and inactive calls. No cut-off for these calls is given here. Non-standard residues stand in square brackets, D forms with d. Residues, ends and D or L forms follow the SMILES beside them. Aib = CC(C)(N)C(=O)O

As for `CC[C@H](C)[C@H](NC(=O)[C@H](Cc1ccccc1)NC(=O)[C@H](CC(=O)O)NC(=O)[C@H](CCCNC(=N)N)NC(=O)[C@H](C)NC(=O)[C@H](C)NC(=O)[C@H](CCC(N)=O)NC(=O)[C@H](CC(N)=O)NC(=O)[C@H](CC(=O)O)NC(=O)[C@H](CC(C)C)NC(=O)[C@@H](NC(=O)[C@@H](NC(=O)[C@H](CC(N)=O)NC(=O)[C@H](CCSC)NC(=O)[C@H](CCC(=O)O)NC(=O)[C@H](CC(=O)O)NC(=O)[C@H](CO)NC(=O)[C@H](Cc1ccccc1)NC(=O)[C@H](CO)NC(=O)CNC(=O)[C@H](CC(=O)O)NC(=O)C(C)(C)N)[C@@H](C)O)[C@@H](C)CC)C(=O)N[C@@H](CC(N)=O)C(=O)N[C@@H](Cc1c[nH]c2ccccc12)C(=O)N[C@@H](CC(C)C)C(=O)N[C@H](C(=O)N[C@@H](CCC(N)=O)C(=O)N[C@H](C(=O)N[C@@H](CCCCN)C(=O)N[C@H](C(=O)N[C@H](C(=O)N[C@@H](CC(=O)O)C(=O)O)[C@@H](C)O)[C@@H](C)CC)[C@@H](C)O)[C@@H](C)CC` (H-[Aib]DGSFSDEMNTILDNQAARDFINWLIQTKITD-OH), the EC50 in assay [1] amounted to 0.12 nM.
As for H-HGDGSFSDEMNTILDGQAARDFINWLIQTK-NH2, in the assay with Mus musculus [2], the outcome was Active.
In the case of H-HGDGSFSSELATILDGKAARDFINWLIQTKITD-OH, the Activity entry in the assay on Rattus norvegicus is “Dose-dependent effect”. The result with Mus musculus [3], in the assay with Mus musculus [4], in the assay with Mus musculus [5], in the assay with Mus musculus [6] and in the assay on Mus musculus [7] was Active.

One may read the EC50 as the midpoint of the concentration-response curve.
